Reference: US8420592B2, “Methods of treatment using single doses of oritavancin” (The Medicines Company, priority 2008, dated 2013)

Columns and labels:
[1] = tested on: S. aureus (MSSA, MRSA, and VRSA); details: within 15 minutes to 2 hours against MSSA, McKay et al. 2009; cited from earlier work
[2] = tested on: Enterococcus faecalis; assay: Phase 2 cSSSI study: cure rate by baseline pathogen; assay type: in vivo; details: Enterococcus faecalis at baseline
Description: (§1) The primary efficacy endpoint was the clinical response in the CE population at TOC, which occurred 20 to 28 days after study enrollment on Day 1. Clinical response was determined by the investigator as part of the end-of-therapy, TOC, and late follow-up procedures by assessing signs and symptoms including fever, pain, tenderness, erythema, induration, edema, purulent drainage, eschar, and devitalized tissue. A clinical response of cure, improvement, failure, or indeterminate was assigned at end-of-therapy and TOC by the investigator based on clinical signs and symptoms. At late follow-up, the investigator could assign the clinical response of relapse in addition to cure, improvement, or indeterminate. Only patients with a clinical response of cure or improvement at TOC were assessed for clinical response at late follow-up.
(§2) Cure was defined as resolution of purulent drainage, pain, edema, fever, erythema, tenderness, and induration. Serous drainage or aspirate and/or granulation tissue could be present. Improvement was defined as resolution of purulent drainage and, in the case of cellulitis, cessation of fever and pain. Residual erythema, edema, pain (in the case of wound or abscess), tenderness, and/or induration could be present as could serous drainage, granulation tissue, eschar, and/or devitalized tissue. Failure included any of the following: presence of purulent drainage (or aspirate) and/or fever; the unanticipated need for abscess drainage or removal of sutures (for treatment of infection)>48 hours after initiation of study therapy; or treatment with nonstudy systemic antibiotic having activity against gram-positive pathogen(s) for the primary infection site or use of topical antibiotics at the site of primary infection 24 hours or more after initiation of study medication therapy.
(§3) Blood and infection site cultures were obtained within three days of enrollment (often done at the time of enrollment). End-of-therapy, TOC, and late follow-up (or at early relapse) cultures were obtained from the infection site if clinically indicated. […] Specimens were cultured and pathogens were identified at each investigative site's certified laboratory. All isolated gram-positive pathogen(s) that were obtained from the infection site at baseline/randomization and up to and including the TOC time point were subcultured and sent to a central laboratory (Covance Clinical Laboratories, Indianapolis, Ind.) for confirmatory identification and susceptibility testing. In cases of discrepancy between the local and the central laboratory, central laboratory results were used.

[3] = tested on: Staphylococcus aureus; assay: as above; assay type: in vivo; details: S. aureus at baseline, TOC
Description: as §1, §2, §3

SMILES: CN[C@H](CC(C)C)C(=O)N[C@H]1C(=O)N[C@@H](CC(N)=O)C(=O)N[C@H]2C(=O)N[C@H]3C(=O)N[C@H](C(=O)N[C@H](C(=O)O)c4cc(O)cc(O)c4-c4cc3ccc4O)[C@H](O[C@H]3C[C@](C)(N)[C@@H](O)[C@H](C)O3)c3ccc(c(Cl)c3)Oc3cc2cc(c3O[C@@H]2O[C@H](CO)[C@@H](O)[C@H](O)[C@H]2O[C@H]2C[C@](C)(NCc3ccc(-c4ccc(Cl)cc4)cc3)[C@@H](O)[C@H](C)O2)Oc2ccc(cc2Cl)[C@H]1O [Oritavancin, N-(4-(4-chlorophenyl)benzyl)A82846B]
- Bactericidal activity, log reduction [1]: ≥ 3 log
- % of patients cured (cure and improvement) ([2]; 200 mg daily dose): 50.0%
- % of patients cured (cure and improvement) ([2]; 800 mg infrequent dose): 100%
- % of patients cured (cure and improvement) ([2]; 1200 mg single dose): 100%
- % of patients cured (cure and improvement) ([3]; 200 mg daily dose): 67.4%
- % of patients cured (cure and improvement) ([3]; 800 mg infrequent dose): 79.5%
- % of patients cured (cure and improvement) ([3]; 1200 mg single dose): 78.9%
